Experimental data published in US10292972B1, “Pharmaceutical composition for treating cancer and a method thereof” (King Abdulaziz University, priority 2017, dated 2019).

System: MCF7 breast cancer cells
Assay: RNA-Seq gene expression profiling of isopicrinine-treated MCF7 cells
Type: cell-based, human
Conditions: for number of upregulated genes / number of downregulated genes: vs DMSO-treated control, P value <0.05; for number of downregulated genes: fold change <−1
Protocol: MCF7 cells (1.6×10^5 cells) were treated with varying doses (sub-lethal) of purified isopicrinine i.e., 30 μM and 150 μM, in triplicates, for 18 hrs at 37° C. Total RNA was extracted using TRIzol reagent. Gene expression analyses of drug-treated MCF7 cells in the presence of sub-lethal concentrations of isopicrinine were performed using Illumina HiSeq. Each RNA was ribo-depleted (Ribo-Zero, Epicentre) prior to cDNA libarary preparation (ScriptSeq epicenter). Each cDNA was separately barcode tagged during library preparation, and sequenced in multiplex generating approximately >40 million 100 bp reads per sample for the mammalian cell line. The Illumina reads were mapped to their respective assembled reference transcriptome sequence using the mapping software TopHat and Cufflinks (Trapnell, C., Pachter, L., Salzberg, S. L. 2009. TopHat: discovering splice junctions with RNA-Seq. Bioinformatics, May 1; 25(9):1105-11. doi: 10.1093/bioinformatics/btp120, incorporated herein by reference in its entirety). Illumina read abundances mapping to each reference contig was normalized using the RPKM (reads per Kb per million reads) calculation. Differentially expressed transcripts were identified and functionally annotated using a variety of statistical analyses available via bioconductor in R language (Durinck, S., Moreau, Y., Kasprzyk, A., Davis, S., De Moor, B., Brazma, A., Huber, W. 2005. BioMart and Bioconductor: a powerful link between biological databases and microarray data analysis. Bioinformatics, 21(16), 3439-3440. doi: 10.1093/bioinformatics/bti525, incorporated herein by reference in its entirety). Clusters of differentially expressed and cycling transcripts were annotated to identify over-represented GO/KEGG pathways (Kanehisa, M., Goto, S., Sato, Y., Furumichi, M., Tanabe, M., 2012. KEGG for integration and interpretation of large-scale molecular data sets. Nucleic Acids Res., 40 (Database issue), D109-14. doi: 10.1093/nar/gkr988, incorporated herein by reference in its entirety).
MCF7 cell line was treated with sub-lethal doses of 30 μM and 150 μM of isopicrinine. […] RNA-Seq transcription profiling was performed for analyzing the transcriptome profile in alkaloid treated MCF7 cells in order to evaluate the pharmacological effects of the new alkaloid isolated from Rhazya stricta. To identify the differentially regulated/expressed genes after treatment with isopicrinine, RNA was extracted from alkaloid treated MCF7 cells (30 μM and 150 μM doses) and DMSO-treated control cells and RNA-Seq experiment was carried out. The sequencing data were compared and analyzed to identify the differentially expressed genes in mammalian cells after treatment with isopicrinine.

[1] = MCF7, vs DMSO control, Cell divsion, dose not given
[2] = MCF7, vs DMSO control, Chromosone Organization, dose not given
[3] = MCF7, vs DMSO control, Cytoskeleton, dose not given
[4] = MCF7, vs DMSO control, DNA repair, dose not given
[5] = MCF7, vs DMSO control, DNA replication, dose not given
[6] = MCF7, vs DMSO control, Induction of apoptosis, dose not given
[7] = MCF7, vs DMSO control, Regulation of cell growth, dose not given
[8] = MCF7, vs DMSO control, Regulation of transcription, dose not given
[9] = MCF7, vs DMSO control, Response to DNA damage stimulus, dose not given

C/C=C1\CN2[C@H]3C[C@@H]1[C@@H](C(=O)OC)[C@]14C[C@H]2O[C@]31Nc1ccccc14 [isopicrinine]
expression of Mxi1 gene (MCF7): significantly upregulated | expression of cell cycle and cell proliferation genes (CDC6, CDK1, CDCA5, DLGAP5, NUSAP1, KIF23, PRC1, BIRC5, AURKB, NDC80, CDC45) (MCF7, 30 μM): not affected | cytotoxicity at sub-lethal doses (MCF7, 30 μM and 150 μM, 18 hrs): No cytotoxicity was detected | number of upregulated genes (MCF7, 30 μM): 148 genes | number of downregulated genes (MCF7, 30 μM): 64 genes | expression of cell cycle and cell proliferation genes (CDC6, CDK1, CDCA5, DLGAP5, NUSAP1, KIF23, PRC1, BIRC5, AURKB, NDC80, CDC45) (MCF7, 150 μM): significantly downregulated | number of downregulated genes (MCF7, 150 μM): 59 genes | number of upregulated genes (MCF7, 150 μM, fold change >1): 36 genes | expression of cell division and mitosis genes (PTTG1, DLGAP5, Cdc6, NDC80, KIF15, KIF23, PRC1, NUSAP1, Aurora B kinase, CDCA5, ATAD2) (MCF7, high dose): downregulated | expression of pro-apoptotic gene PUMA (BBC3) (MCF7, sub-lethal dose, FIG. 5): upregulated | expression of survivin (BIRC5) (MCF7, sub-lethal doses): Downregulation | log2 (fold change) ASPM [1]: −1.3045 | log2 (fold change) AURKB [1]: −1.646 | log2 (fold change) BIRC5 [1]: −0.9572 | log2 (fold change) CDC6 [1]: −2.322 | log2 (fold change) CDCA5 [1]: −1.551 | log2 (fold change) CDK1 [1]: −1.149 | log2 (fold change) FBXO5 [1]: −1.067 | log2 (fold change) KIF23 [1]: −0.905 | log2 (fold change) NCAPG [1]: −1.314 | log2 (fold change) NCAPH [1]: −1.018 | log2 (fold change) NDC80 [1]: −1.343 | log2 (fold change) NUSAP1 [1]: −1.539 | log2 (fold change) PRC1 [1]: −1.527 | log2 (fold change) PTTG1 [1]: −1.05 | log2 (fold change) SGOL1 [1]: −1.044 | log2 (fold change) DLGAP5 [2]: −1.263 | log2 (fold change) ESPL1 [2]: −1.9647 | log2 (fold change) H2AFZ [2]: −0.952 | log2 (fold change) HIST1H1B [2]: −2.278 | log2 (fold change) HIST1H2AJ, HIST1H2AK [2]: −2.034 | log2 (fold change) HIST1H2AM, HIST1H3J [2]: −2.034 | log2 (fold change) HIST1H2BL [2]: −2.032 | log2 (fold change) HIST2H2AA4, HIST2H2AC [2]: −1.505 | log2 (fold change) HIST2H2AB [2]: −2.144 | log2 (fold change) HIST2H2BF [2]: −1.757 | log2 (fold change) HIST2H3C [2]: −2.716 | log2 (fold change) HIST2H3PS2 [2]: −1.3321 | log2 (fold change) HIST2H4A [2]: −2.138 | log2 (fold change) AGBL2 [3]: 2.627 | log2 (fold change) DLG2 [3]: 2.268 | log2 (fold change) DRP2 [3]: 2.047 | log2 (fold change) KRT81 [3]: 1.797 | log2 (fold change) PTP4A1 [3]: 1.331 | log2 (fold change) BRCA1 [4]: −1.076 | log2 (fold change) EXO1 [4]: −1.784 | log2 (fold change) RAD51AP1 [4]: −1.652 | log2 (fold change) UHRF1 [4]: −1.1337 | log2 (fold change) CDC45 [5]: −1.801 | log2 (fold change) MCM3 [5]: −1.644 | log2 (fold change) MCM4 [5]: −1.522 | log2 (fold change) MCM5 [5]: −1.878 | log2 (fold change) MCM6 [5]: −1.423 | log2 (fold change) MCM7 [5]: −1.716 | log2 (fold change) MCM8 [5]: −1.013 | log2 (fold change) MCM10 [5]: −1.321 | log2 (fold change) RFC3 [5]: −1.142 | log2 (fold change) RRM2 [5]: −1.2797 | log2 (fold change) TOP2A [5]: −1.662 | log2 (fold change) BBC3 [6]: 1.481 | log2 (fold change) CDKN1A [6]: 1.119 | log2 (fold change) INHBA [6]: 1.026 | log2 (fold change) MAGED1 [6]: 0.8954 | log2 (fold change) LTBP4 [7]: 1.504 | log2 (fold change) SPP1 [7]: 1.075 | log2 (fold change) VGF [7]: 0.9472 | log2 (fold change) ATAD2 [8]: −1.388 | log2 (fold change) ATAD5 [8]: −1.628 | log2 (fold change) ATF3 [8]: 1.3961 | log2 (fold change) BRIP1 [8]: −1.416 | log2 (fold change) EGR1 [8]: 1.39 | log2 (fold change) FHL2 [8]: 1.024 | log2 (fold change) MDM2 [8]: 1.725 | log2 (fold change) MXI1 [8]: 1.118 | log2 (fold change) MYBL2 [8]: −1.231 | log2 (fold change) NRG1 [8]: 0.8825 | log2 (fold change) BTG2 [9]: 1.485 | log2 (fold change) CCND1 [9]: 1.49 | log2 (fold change) DDB2 [9]: 1.191 | log2 (fold change) GADD45A [9]: 1.333
